The subject of the test is poly A–poly U (pApU, ds-RNA) (RNA, polymer) A/U. Kind of test: fluorimetric titration, Scatchard fit. As to conditions: Na+ (sodium cacodylate, I = 0.05 M), pH 7.0, 25 °C, recalculated for fixed n = 0.2 [bound dye]/[polynucleotide], c(nucleobase), per base.

This is an account of results in paper PMC10535762 (2023).

As to `C#CC[N+](C)(C)c1cc(C)c(B(c2c(C)cccc2C)c2c(C)cc(N(C)C)cc2C)c(C)c1`, under “TB-p 5 µM”, the “log Ks” value was 7.1.
Turning to `Cc1cccc(C)c1B(c1c(C)cc(N(C)C)cc1C)c1c(C)cc([N+](C)(C)Cc2cn(CC[C@H](NC(=O)OCC3c4ccccc4-c4ccccc43)C(=O)O)nn2)cc1C`, the “log Ks” value (TB-AA 3 µM) was 6.0.
